According to the supplement of paper PMC11061612:

Tests used:
Experiment in all cases: Bliss excess, mean over the matrix (fraction); higher = more synergy
[1] = system: OACM5-1 (Esophageal Adenocarcinoma)
In short: (§1)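 Bliss excess equals the observed combination effect minus the expected value EA + EB − EA·EB, where EA and EB are the effects of each agent alone. Combination Emax is the second-highest inhibition within the matrix. Inhibition was scaled from CellTiter-Glo 2.0 luminescence, with 0 set by vehicle wells and 1 by blank wells, after 72 hours of two-drug dosing of cells plated in 1536-well plates.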

[2] = system: HCC2998 (Colorectal Carcinoma)
In short: as §1

[3] = system: NCI-H2122 (Lung Adenocarcinoma)
In short: as §1

[4] = system: HCC1500 (Breast Carcinoma)
In short: as §1

[5] = system: A4-Fuk (B-Lymphoblastic Leukemia)
In short: as §1

[6] = system: NCI-H650 (Lung Adenocarcinoma)
In short: as §1

Hey (Ovarian Carcinoma) = system: Hey (Ovarian Carcinoma)
In short: as §1

[7] = system: ALL-SIL (T-Lymphoblastic Leukemia)
In short: as §1

[8] = system: NCI-H522 (Lung Adenocarcinoma)
In short: as §1

[9] = system: CADO-ES1 (Ewing's Sarcoma)
In short: as §1

[10] = system: NCI-H1993 (Lung Adenocarcinoma)
In short: as §1

[11] = system: NCI-H1838 (Lung Adenocarcinoma)
In short: as §1

[12] = system: SKN (Other Solid Carcinomas)
In short: as §1

[13] = system: MOLT-4 (T-Lymphoblastic Leukemia)
In short: as §1

[14] = system: KMRC-1 (Kidney Carcinoma)
In short: as §1

[15] = system: G-401 (Other Solid Carcinomas)
In short: as §1

[16] = system: NCI-H1355 (Lung Adenocarcinoma)
In short: as §1

[17] = system: ML-2 (Acute Myeloid Leukemia)
In short: as §1

[18] = system: Mo-T (Other Blood Carcinomas)
In short: as §1

[19] = system: MV-4-11 (Acute Myeloid Leukemia)
In short: as §1

NC1(C(=O)N[C@@H](CCO)c2ccc(Cl)cc2)CCN(c2ncnc3[nH]ccc23)CC1 [Capivasertib] + C[C@@H]1COCCN1C2=NC(=NC(=C2)C3(CC3)[S@](=N)(=O)C)C4=C5C=CNC5=NC=C4 [AZD6738] (first compound max 10 µM, 7x7, partner max 10 µM)
Bliss excess [1]: 0.0338
Bliss excess [2]: -0.0629
Bliss excess [3]: -0.0658
Bliss excess [4]: 0.0226
Bliss excess [5]: -0.0841
Bliss excess [6]: -0.0441
Bliss excess (Hey (Ovarian Carcinoma)): -0.0402
Bliss excess [7]: -0.0322
Bliss excess [8]: -0.0483
Bliss excess [9]: -0.0284
Bliss excess [10]: -0.0598
Bliss excess [11]: -0.0733
Bliss excess [12]: -0.0477
Bliss excess [13]: 0.0011
Bliss excess [14]: -0.0504
Bliss excess [15]: -0.0856
Bliss excess [16]: -0.0317
Bliss excess [17]: -0.0241
Bliss excess [18]: 0.0465
Bliss excess [19]: -0.0546

CN(CCO)CC[C@H](CSc1ccccc1)Nc1ccc(S(=O)(=O)NC(=O)c2ccc(N3CCC([C@@H](O)c4ccccc4-c4ccc(Cl)cc4)CC3)cc2)cc1S(=O)(=O)C(F)(F)F [AZD4320] + CN(C)CCCOc1ccc(-c2ccc3ncc4c(c3c2)n(C2CCOCC2)c(=O)n4C)cn1 [AZD0156] (first compound max 1 µM, 7x7, partner max 1 µM)
Bliss excess [1]: -0.0016
Bliss excess [2]: -0.01
Bliss excess [3]: -0.0121
Bliss excess [4]: 0.0352
Bliss excess [5]: -0.0077
Bliss excess [6]: -0.0182
Bliss excess (Hey (Ovarian Carcinoma)): -0.0272
Bliss excess [7]: 0.0035
Bliss excess [8]: -0.027
Bliss excess [9]: 0.0269
Bliss excess [10]: -0.0734
Bliss excess [11]: 0.0135
Bliss excess [12]: -0.0296
Bliss excess [13]: 0.0052
Bliss excess [14]: -0.0245
Bliss excess [15]: -0.0506
Bliss excess [16]: -0.0888
Bliss excess [17]: -0.0056
Bliss excess [18]: -0.0982
Bliss excess [19]: -0.034

COc1cccc(OCCCN)c1-c1cc(Nc2cnc(C#N)cn2)n[nH]1 [Prexasertib] + O=C(c1cc(Cc2n[nH]c(=O)c3ccccc23)ccc1F)N1CCN(C(=O)C2CC2)CC1 [Olaparib] (first compound max 1 µM, 7x7, partner max 10 µM)
Bliss excess [1]: -0.054
Bliss excess [2]: -0.0432
Bliss excess [3]: -0.0471
Bliss excess [4]: -0.004
Bliss excess [5]: 0.0189
Bliss excess [6]: -0.0442
Bliss excess (Hey (Ovarian Carcinoma)): -0.0098
Bliss excess [7]: -0.0222
Bliss excess [8]: -0.0491
Bliss excess [9]: -0.0315
Bliss excess [10]: -0.0685
Bliss excess [11]: -0.153
Bliss excess [12]: -0.0209
Bliss excess [13]: 0.0154
Bliss excess [14]: -0.0411
Bliss excess [15]: -0.166
Bliss excess [16]: -0.0448
Bliss excess [17]: -0.0006
Bliss excess [18]: 0.0066
Bliss excess [19]: -0.0247

COc1cccc(OCCCN)c1-c1cc(Nc2cnc(C#N)cn2)n[nH]1 [Prexasertib] + C[C@@H]1COCCN1C2=NC(=NC(=C2)C3(CC3)[S@](=N)(=O)C)C4=C5C=CNC5=NC=C4 [AZD6738] (first compound max 1 µM, 7x7, partner max 10 µM)
Bliss excess [1]: -0.0153
Bliss excess [2]: 0.0211
Bliss excess [3]: -0.0262
Bliss excess [4]: 0.0568
Bliss excess [5]: -0.0602
Bliss excess [6]: -0.0278
Bliss excess (Hey (Ovarian Carcinoma)): 0.007
Bliss excess [7]: -0.0175
Bliss excess [8]: 0.0392
Bliss excess [9]: -0.0348
Bliss excess [10]: -0.0176
Bliss excess [11]: -0.174
Bliss excess [12]: -0.02
Bliss excess [13]: 0.0087
Bliss excess [14]: 0.0101
Bliss excess [15]: 0.0399
Bliss excess [16]: 0.0276
Bliss excess [17]: -0.0361
Bliss excess [18]: -0.0463
Bliss excess [19]: -0.0356

NC1(C(=O)N[C@@H](CCO)c2ccc(Cl)cc2)CCN(c2ncnc3[nH]ccc23)CC1 [Capivasertib] + COc1nnc2ccc(N3CCC(c4ccc(OCCN5CCN(C)C(=O)[C@H]5C)cc4)CC3)nn12 [AZD5153] (first compound max 10 µM, 7x7, partner max 1 µM)
Bliss excess [1]: -0.019
Bliss excess [2]: -0.0046
Bliss excess [3]: 0.0243
Bliss excess [4]: 0.0118
Bliss excess [5]: -0.0465
Bliss excess [6]: -0.0108
Bliss excess (Hey (Ovarian Carcinoma)): 0.0206
Bliss excess [7]: -0.0024
Bliss excess [8]: -0.0698
Bliss excess [9]: 0.0331
Bliss excess [10]: 0.0372
Bliss excess [11]: 0.0032
Bliss excess [12]: 0.0238
Bliss excess [13]: 0.0908
Bliss excess [14]: 0.0129
Bliss excess [15]: 0.012
Bliss excess [16]: 0.0316
Bliss excess [17]: -0.0187
Bliss excess [18]: -0.0717
Bliss excess [19]: 0.0074

Cc1c2c(nn1C)CSCc1cc(n(C)n1)CSc1cc(c3ccccc3c1)OCCCc1c(C(=O)O)n(C)c3c-2c(Cl)ccc13 [AZD5991] + CN(C)CCCOc1ccc(-c2ccc3ncc4c(c3c2)n(C2CCOCC2)c(=O)n4C)cn1 [AZD0156] (first compound max 1 µM, 7x7, partner max 1 µM)
Bliss excess [1]: -0.0029
Bliss excess [2]: 0.0003
Bliss excess [3]: 0.0237
Bliss excess [4]: 0.0453
Bliss excess [5]: -0.0032
Bliss excess [6]: 0.0527
Bliss excess (Hey (Ovarian Carcinoma)): -0.0039
Bliss excess [7]: 0.0049
Bliss excess [8]: -0.0354
Bliss excess [9]: -0.0098
Bliss excess [10]: -0.0369
Bliss excess [11]: 0.043
Bliss excess [12]: -0.0055
Bliss excess [13]: -0.0058
Bliss excess [14]: -0.0412
Bliss excess [15]: 0.0014
Bliss excess [16]: -0.0298
Bliss excess [17]: -0.0149
Bliss excess [18]: -0.0236
Bliss excess [19]: -0.0395

COc1nnc2ccc(N3CCC(c4ccc(OCCN5CCN(C)C(=O)[C@H]5C)cc4)CC3)nn12 [AZD5153] + CCN(CCO)CCCOc1ccc2c(Nc3cc(CC(=O)Nc4cccc(F)c4)[nH]n3)ncnc2c1 [AZD2811] (first compound max 1 µM, 7x7, partner max 1 µM)
Bliss excess [1]: 0.0367
Bliss excess [2]: -0.0288
Bliss excess [3]: -0.08
Bliss excess [4]: 0.0233
Bliss excess [5]: -0.0025
Bliss excess [6]: 0.0112
Bliss excess (Hey (Ovarian Carcinoma)): -0.0417
Bliss excess [7]: 0.0139
Bliss excess [8]: -0.115
Bliss excess [9]: -0.0493
Bliss excess [10]: -0.0401
Bliss excess [11]: -0.0282
Bliss excess [12]: -0.0711
Bliss excess [13]: 0.0277
Bliss excess [14]: -0.0437
Bliss excess [15]: -0.0625
Bliss excess [16]: 0.0143
Bliss excess [17]: -0.0355
Bliss excess [18]: 0.0014
Bliss excess [19]: -0.0185
